The text below walks through data of publication PMC12061717, “Molecular characterization of a Minus-C odorant-binding protein from Cyrtotrachelus buqueti (Coleoptera: Curculionidae)” (Frontiers in Physiology, 2025).

Read-outs that look alike come from different tables or passages of the source.

Test [1] concerns the target T1, CbuqOBP1 (Cyrtotrachelus buqueti, UniProt A0A1L3KPS8). As to the kind of experiment: Binding of fluorescent probe 1-NPN to CbuqOBP1 (titration, Scatchard plot). To be noted: 2 μM protein titrated with 1-NPN 2 to 40 μM, read-out: K 1-NPN (dissociation constant of CbuqOBP1/1-NPN complex). As to the method:
(§1) The fluorescence competition binding assays were carried out with a F-7000 fluorescence spectrophotometer (Hitachi, Tokyo, Japan) at room temperature using a 1 cm wide light-path fluorimeter quartz cuvette and 10 nm slits for both excitation and emission. The purified CbuqOBP1 was dissolved in 50 mM Tris–HCl buffer (pH 7.4) to a final concentration of 2 μM, while all ligands used in binding experiments were dissolved in chromatographic methanol to a final concentration of 1 mM.
N-phenyl-1-naphthylamine (1-NPN) (Aladdin Biochemical Technology Co., LTD., Shanghai, China) was used as the fluorescent probe. The probe was excited at 337 nm and emission spectra were recorded between 350 and 550 nm. […] Assuming that 1-NPN binds to the protein at a 1:1 ratio and that the protein was 100% active, a Scatchard plot analysis of the binding data was performed to calculate the dissociation constant (K d) of CbuqOBP1 with 1-NPN.

The target in test [2] is T1, CbuqOBP1. As to the kind of experiment: Fluorescence competition binding assay with 1-NPN as probe. To be noted: for Ki: K i = [IC50]/(1 + [1-NPN]/K 1-NPN), CbuqOBP1 and 1-NPN both 2 μM, pH 7.4. On the procedure: as §1
N-phenyl-1-naphthylamine (1-NPN) (Aladdin Biochemical Technology Co., LTD., Shanghai, China) was used as the fluorescent probe. The probe was excited at 337 nm and emission spectra were recorded between 350 and 550 nm.
Based on the above studies, a total of nine candidate volatiles were selected as test ligands, including eight volatiles emitted by female adults of C. buqueti and the linalool released from the host plant N. affinis (Table 1). All these compounds were purchased from Aladdin Biochemical Technology Co., LTD. (Shanghai, China) with a purity of at least more than 90%. […] Binding data were collected as three independent measurements.

In a further test the test system is C. buqueti adults. Set-up: method as in Cai, 2018. Particulars: previous behavioral studies; ref Cai, 2018; cited from earlier work.
In test [3] the test system is Bradysia odoriphaga (Diptera) adults. Set-up: method as in Li L. et al., 2013; Chen et al., 2014. Particulars: ref Li L. et al., 2013; Chen et al., 2014; cited from earlier work.
Test [4] deals with Xylotrechus rusticus (Coleoptera) adults. Set-up: method as in Li L. et al., 2013; Chen et al., 2014. To be noted: ref Li L. et al., 2013; Chen et al., 2014; cited from earlier work.
[5] abbreviates: recombinant CbuqOBP1 and 1-NPN both 2 μM, 50 mM Tris-HCl pH 7.4, room temperature, read-out: IC50.

T1 sequence (A0A1L3KPS8 entry or part of it): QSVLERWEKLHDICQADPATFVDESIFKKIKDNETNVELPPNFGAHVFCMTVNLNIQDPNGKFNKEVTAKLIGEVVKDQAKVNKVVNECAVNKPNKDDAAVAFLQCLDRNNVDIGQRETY

For `c1ccc(Nc2cccc3ccccc23)cc1` [1-NPN, N-phenyl-1-naphthylamine], the Kd on CbuqOBP1 [1] stood at 24.2 µM. The term IC50 denotes the concentration that inhibits the measured activity by half. Compound `Cc1cccc(C)c1` [M-xylene] returned a concentration for half-maximal inhibition (IC50) at CbuqOBP1 [2] of 36 µM. The Ki is the equilibrium dissociation constant of an inhibitor or competing ligand from its target. `CCCC/C=C/C=C/C=O` [trans,trans-2,4-Nonadienal]: the Ki at CbuqOBP1 [2] is 22.4 µM. The IC50 at CbuqOBP1 [2] (setting [5]) amounted to 24.3 µM.

`C=C(C)[C@H]1CC=C(C)CC1` [(+)-Limonene] came in with a 50% inhibitory concentration (IC50) on CbuqOBP1 [2] of 18.8 µM. Consider `C=Cc1ccccc1` [Styrene], for which the IC50 at CbuqOBP1 [2] came out at 22.1 µM. For `CCCCCC(=O)OCC` [Ethyl hexanoate], the Ki on CbuqOBP1 [2] is 19.5 µM. In addition, on CbuqOBP1 [2] (setting [5]), the IC50 came to 21 µM. Compound `C[C@@H]1CC[C@H]2C(C)(C)[C@H]3C[C@@]12CC[C@@]3(C)O` [Cedrol] came in with an IC50 at CbuqOBP1 [2] of 40.3 µM.

Regarding `Oc1ccccc1` [Phenol], in the test on C. buqueti adults, the attractant for adults entry is “efficient attractants”. At CbuqOBP1 [2], this compound returned an IC50 of 11.4 µM.

As for `C=CC(C)(O)CCC=C(C)C` (stereo not shown) [Linalool], the IC50 on CbuqOBP1 [2] is 14.5 µM. For the compound `c1ccc2scnc2c1` [Benzothiazole], in the test on C. buqueti adults, the attractant for adults result is recorded as “efficient attractants”. Besides, the attractiveness to adults result in test [3] and in test [4] was “highly attractive” in each case. At CbuqOBP1 [2], this compound came in with a half-maximal inhibitory concentration (IC50) of 12 µM.
